# From US20260020569A1, “PESTICIDALLY ACTIVE THIOSEMICARBAZONE COMPOUNDS” (BASF SE, priority 2021, published 2026)
# Columns and labels:
# Format in all cases: in vivo
# [1] = system: Orchid thrips (Dichromothrips corbetti); experiment: Action on orchid thrips (Dichromothrips corbetti), floral-immersion technique; conditions: adult thrips, 72 hours after treatment, read-out: mortality in comparison with untreated controls
# Protocol: Example B2: Action on Orchid Thrips (Dichromothrips corbetti)
# Dichromothrips corbetti adults used for bioassay were obtained from a colony maintained continuously under laboratory conditions. For testing purposes, the test compound is diluted in a 1:1 mixture of acetone:water (vol:vol), plus Kinetic® HV at a rate of 0.01% v/v.
# Thrips potency of each compound was evaluated by using a floral-immersion technique. All petals of individual, intact orchid flowers were dipped into treatment solution and allowed to dry in Petri dishes. Treated petals were placed into individual re-sealable plastic along with about 20 adult thrips. All test arenas were held under continuous light and a temperature of about 28° C. for duration of the assay. After 3 days, the numbers of live thrips were counted on each petal. The percent mortality was recorded 72 hours after treatment.
# [2] = system: Silverleaf whitefly (Bemisia argentifolii) (adults); experiment: Action on silverleaf whitefly (Bemisia argentifolii) adults on sprayed cotton plants; conditions: 72 h, 3 days after treatment, read-out: mortality in comparison with untreated controls
# Protocol: Example B4: Action on Silverleaf Whitefly (Bemisia argentifolii) (Adults)
# (§1) The active compounds were formulated by a Tecan liquid handler in 100% cyclohexanone as a 10,000 ppm solution supplied in tubes. The 10,000 ppm solution was serially diluted in 100% cyclohexanone to make interim solutions. These served as stock solutions for which final dilutions were made by the Tecan in 50% acetone:50% water (v/v) into 5 or 10 ml glass vials. A non-ionic surfactant (Kinetic®) was included in the solution at a volume of 0.01% (v/v). The vials were then inserted into an automated electrostatic sprayer equipped with an atomizing nozzle for application to plants/insects.
# Cotton plants at the cotyledon stage (one plant per pot) were sprayed by an automated electrostatic plant sprayer equipped with an atomizing spray nozzle. The plants were dried in the sprayer fume hood and then removed from the sprayer. Each pot was placed into a plastic cup and about 10 to 12 whitefly adults (approximately 3-5 days old) were introduced. The insects were collected using an aspirator and a nontoxic Tygon® tubing connected to a barrier pipette tip. The tip, containing the collected insects, was then gently inserted into the soil containing the treated plant, allowing insects to crawl out of the tip to reach the foliage for feeding. Cups were covered with a reusable screened lid. Test plants were maintained in a growth room at about 25° C. and about 20-40% relative humidity for 3 days, avoiding direct exposure to fluorescent light (24 hour photoperiod) to prevent trapping of heat inside the cup. Mortality was assessed 3 days after treatment, compared to untreated control plants.
# [3] = system: yellow fever mosquito (Aedes aegypti); experiment: whole plant or invertebrate; conditions: 48 h, larval mortality visually assessed after 2 days, read-out: mortality in comparison with untreated controls
# Protocol: Example B1: Action on Yellow Fever Mosquito (Aedes aegypti)
# For evaluating control of yellow fever mosquito (Aedes aegypti) the test unit consisted of 96-well-microtiter plates containing 200 μl of tap water per well and 5-15 freshly hatched A. aegypti larvae.
# The active compounds or mixtures were formulated using a solution containing 75% (v/v) water and 25% (v/v) DMSO. Different concentrations of formulated compounds or mixtures were sprayed onto the insect diet at 2.5 μl, using a custom built micro atomizer, at two replications. For experimental mixtures in these tests identical volumes of both mixing partners at the desired concentrations respectively, were mixed together.
# After application, microtiter plates were incubated at 28±1° C., 80±5% RH for 2 days. Larval mortality was then visually assessed.
# [4] = system: Southern armyworm (Spodoptera eridania), 2nd instar larvae; experiment: Action on southern armyworm (Spodoptera eridania), 2nd instar larvae on sprayed lima bean plants; conditions: 96 h, 2nd instar larvae on lima bean plants, 4 days after treatment, read-out: mortality in comparison with untreated controls
# Protocol: Example B7: Action on Southern Armyworm (Spodoptera eridania), 2nd Instar Larvae
# as §1, with “into 10” for “into 5”, “or 20” for “or 10”, “A nonionic” for “A non-ionic”
# Lima bean plants (variety Sieva) were grown 2 plants to a pot and selected for treatment at the 1st true leaf stage. Test solutions were sprayed onto the foliage by an automated electrostatic plant sprayer equipped with an atomizing spray nozzle. The plants were dried in the sprayer fume hood and then removed from the sprayer. Each pot was placed into perforated plastic bags with a zip closure. About 10 to 11 armyworm larvae were placed into the bag and the bags zipped closed. Test plants were maintained in a growth room at about 25° C. and about 20-40% relative humidity for 4 days, avoiding direct exposure to fluorescent light (24 hour photoperiod) to prevent trapping of heat inside the bags. Mortality and reduced feeding were assessed 4 days after treatment, compared to untreated control plants.
# [5] = system: boll weevil (Anthonomus grandis); experiment: Action on boll weevil (Anthonomus grandis), eggs on insect diet in microtiter plates; conditions: 120 h, egg and larval mortality after 5 days, read-out: mortality in comparison with untreated controls
# Protocol: Example B3: Action on Boll Weevil (Anthonomus grandis)
# For evaluating control of boll weevil (Anthonomus grandis) the test unit consisted of 96-well-microtiter plates containing an insect diet and 5-10 A. grandis eggs.
# The compounds were formulated using a solution containing 75% (v/v) water and 25% (v/v) DMSO. Different concentrations of formulated compounds were sprayed onto the insect diet at 5 μl, using a custom built micro atomizer, at two replications.
# After application, microtiter plates were incubated at about 25+1° C. and about 75+5% relative humidity for 5 days. Egg and larval mortality were then visually assessed.
# [6] = system: tobacco budworm (Heliothis virescens); experiment: Action on tobacco budworm (Heliothis virescens), eggs on insect diet in microtiter plates; conditions: 120 h, egg and larval mortality after 5 days, read-out: mortality in comparison with untreated controls
# Protocol: Example B5: Action on Tobacco Budworm (Heliothis virescens)
# For evaluating control of tobacco budworm (Heliothis virescens) the test unit consisted of 96-well-microtiter plates containing an insect diet and 15-25 H. virescens eggs.
# The compounds were formulated using a solution containing 75% v/v water and 25% v/v DMSO. Different concentrations of formulated compounds were sprayed onto the insect diet at 10 μl, using a custom-built micro atomizer, at two replications.
# After application, microtiter plates were incubated at about 28+1° C. and about 80+5% relative humidity for 5 days. Egg and larval mortality were then visually assessed.
# [7] = system: Diamond back moth (Plutella xylostella); experiment: Action on diamond back moth (Plutella xylostella), cabbage leaf dip; conditions: foliar, 3rd instar larvae on cabbage leaves, 72 hours after treatment, read-out: mortality in comparison with untreated controls
# Protocol: Example B6: Action on Diamond Back Moth (Plutella xylostella)
# The active compound is dissolved at the desired concentration in a mixture of 1:1 (v/v) distilled water:acetone. Surfactant (Kinetic® HV) is added at a rate of 0.01% (v/v). The test solution is prepared at the day of use.
# Leaves of cabbage were dipped in test solution and air-dried. Treated leaves were placed in petri dishes lined with moist filter paper and inoculated with ten 3rd instar larvae. Mortality was recorded 72 hours after treatment. Feeding damages were also recorded using a scale of 0-100%.
SMILES,mortality at 500 ppm [1] [%],mortality at 300 ppm [2] [%],mortality at 800 ppm [3] [%],mortality at 300 ppm [4] [%],mortality at 800 ppm [5] [%],mortality at 800 ppm [6] [%],mortality at 500 ppm [7] [%]
"COCCOCCOCCOC(=O)OCS/C(=N\N=C\c1ccc(-n2cc(NC(=O)c3ccc(OC(F)(F)F)cc3)c(C)n2)cc1)Nc1cc(C)ccc1C(C)C [Compound C-5, [(Z)—N-(2-isopropyl-5-methyl-phenyl)-N′-[(E)-[4-[3-methyl-4-[[4-(trifluoromethoxy)benzoyl]amino]pyrazol-1-yl]phenyl]methyleneamino]carbamimidoyl]sulfanylmethyl 2-[2-(2-methoxyethoxy)ethoxy]ethyl carbonate]",≥ 75,≥ 75,≥ 50,≥ 75,≥ 75,≥ 75,≥ 75
"Cc1ccc(C(C)C)c(N/C(=N/N=C/c2ccc(-n3cc(NC(=O)c4ccc(OC(F)(F)F)cc4)c(C)n3)cc2)SCOC(=O)C(C)C)c1 [Compound C-6, [(Z)—N-(2-isopropyl-5-methyl-phenyl)-N′-[(E)-[4-[3-methyl-4-[[4 (trifluoromethoxy)benzoyl]amino]pyrazol-1-yl]phenyl]methyleneamino]carbamimidoyl]sulfanylmethyl 2-methylpropanoate]",≥ 75,–,≥ 50,≥ 75,≥ 75,≥ 75,≥ 75
"Cc1ccc(C(C)C)c(N/C(=N/N=C/c2ccc(-n3cc(NC(=O)c4ccc(OC(F)(F)F)cc4)c(C)n3)cc2)SCOC(=O)N2CCOCC2)c1 [Compound C-10, [(Z)—N-(2-isopropyl-5-methyl-phenyl)-N′-[(E)-[4-[3-methyl-4-[[4-(trifluoromethoxy)benzoyl]amino]pyrazol-1-yl]phenyl]methyleneamino]carbamimidoyl]sulfanylmethyl morpholine-4-carboxylate]",≥ 75,–,–,≥ 75,≥ 75,≥ 75,≥ 75
"COCCOCCOCCOCCOC(=O)OCS/C(=N\N=C\c1ccc(-n2cc(NC(=O)c3ccc(OC(F)(F)F)cc3)c(C)n2)cc1C)Nc1cc(C)ccc1C(C)C [Compound C-15, [(Z)—N-(2-isopropyl-5-methyl-phenyl)-N′-[(E)-[2-methyl-4-[3-methyl-4-[[4-(trifluoromethoxy)benzoyl]amino]pyrazol-1-yl]phenyl]methyleneamino]carbamimidoyl]sulfanylmethyl 2-[2-[2-(2-methoxyethoxy)ethoxy]ethoxy]ethyl carbonate]",≥ 75,≥ 75,≥ 50,≥ 75,≥ 75,≥ 75,≥ 75
"Cc1ccc(C(C)C)c(N/C(=N/N=C/c2ccc(-n3cc(NC(=O)c4ccc(OC(F)(F)F)cc4)c(C)n3)cc2C)SCOC(=O)C2CCCCC2)c1 [Compound C-21, [(Z)—N-(2-isopropyl-5-methyl-phenyl)-N′-[(E)-[2-methyl-4-[3-methyl-4-[[4-(trifluoromethoxy)benzoyl]amino]pyrazol-1-yl]phenyl]methyleneamino]carbamimidoyl]sulfanylmethyl cyclohexanecarboxylate]",≥ 75,≥ 75,–,≥ 75,≥ 75,≥ 75,≥ 75
"Cc1ccc(C(C)C)c(N/C(=N/N=C/c2ccc(-n3cc(NC(=O)c4ccc(OC(F)(F)F)cc4)c(C)n3)cc2C)SCOC(=O)C2CC2)c1 [Compound C-22, [(Z)—N-(2-isopropyl-5-methyl-phenyl)-N′-[(E)-[2-methyl-4-[3-methyl-4-[[4-(trifluoromethoxy)benzoyl]amino]pyrazol-1-yl]phenyl]methyleneamino]carbamimidoyl]sulfanylmethyl cyclopropanecarboxylate]",≥ 75,–,≥ 50,≥ 75,≥ 75,≥ 75,≥ 75
"COc1ccc(/C=C/C(=O)OCS/C(=N\N=C\c2ccc(-n3cc(NC(=O)c4ccc(OC(F)(F)F)cc4)c(C)n3)cc2C)Nc2cc(C)ccc2C(C)C)cc1 [Compound C-23, [(Z)—N-(2-isopropyl-5-methyl-phenyl)-N′-[(E)-[2-methyl-4-[3-methyl-4-[[4-(trifluoromethoxy)benzoyl]amino]pyrazol-1-yl]phenyl]methyleneamino]carbamimidoyl]sulfanylmethyl (E)-3-(4-methoxyphenyl)prop-2-enoate]",≥ 75,≥ 75,–,≥ 75,≥ 75,≥ 75,≥ 75
